13 compounds from US20260131016A1, “NOVEL AURISTATIN ANALOGS AND IMMUNOCONJUGATES THEREOF” (ADCENTRX THERAPEUTICS INC., priority 2021, published 2026) can be followed below.

Square brackets hold non-standard residues; d marks the D form. Peptide text beside a SMILES is read from it. * marks the point of attachment. Dolaproine = CO[C@@H]([C@@H]1CCCN1)[C@@H](C)C(=O)O; Dil = CC[C@H](C)[C@H](NC)[C@@H](CC(=O)O)OC; NMe2Val = CC(C)[C@@H](C(=O)*)N(C)C

The subject of the experiment is HCC1954 breast ductal carcinoma. As to the kind of experiment: Cell viability (Cell Titer Glo 2.0) in HCC1954, 120 hours. The format is cell-based. To be noted: for IC50[N—Me amide]/IC50[NH-amide]: HCC1954 5-Day Assay, N-methylation of the amide between P4 and P5; for IC50: Homo sapiens, HCC1954, 120 h, read-out: IC50 (nM), in vitro potency in HCC1954. The procedure: HCC1954 breast ductal carcinoma and T47D cells (ATCC, Manassas, VA, USA) were seeded into 384-well white-walled culture plates and allowed to adhere for 2-4 hours. Cells were then treated at least in duplicate by addition of 5-fold serially diluted test articles prepared at 2× final concentration and incubated at 37° C. for 120 hours. Cell viability following treatment was determined by Cell Titer Glo 2.0 Assay (Promega, Madison, WI, USA) and normalized to non-treated controls. Dose-response relationships were analyzed using GraphPad Prism (La Jolla, CA, USA), and IC50 values were derived from non-linear regression analyses using a 4-parameter logistic equation.

Turning to `CC[C@H](C)[C@@H]([C@@H](CC(=O)N1CCC[C@H]1[C@H](OC)[C@@H](C)C(=O)N[C@H](C)[C@@H](O)c1ccccc1)OC)N(C)C(=O)[C@@H](NC(=O)[C@H](C(C)C)N(C)C)C(C)C` [Auristatin E, reference compound], the “IC50[N—Me amide]/IC50[NH-amide]” value came to 23.

For the compound `CC[C@H](C)[C@@H]([C@@H](CC(=O)N1CCC[C@H]1[C@H](OC)[C@@H](C)C(=O)N[C@@H](Cc1ccccc1)C(=O)OC)OC)N(C)C(=O)[C@@H](NC(=O)[C@H](C(C)C)N(C)C)C(C)C` [Auristatin PHE, reference compound] (NMe2Val-V[Dil][Dolaproine]F-OMe), the “IC50[N—Me amide]/IC50[NH-amide]” value came to 139.

Turning to `CC[C@H](C)[C@@H]([C@@H](CC(=O)N1CCC[C@H]1[C@H](OC)[C@@H](C)C(=O)N(C)CCc1cccc(N)c1)OC)N(C)C(=O)[C@@H](NC(=O)[C@@H](C)N(C)C)C(C)C` [Compound 3, (S)-N-((3R,4S,5S)-1-((S)-2-((IR,2R)-3-((3-aminophenethyl)(methyl)amino)-1-methoxy-2-methyl-3-oxopropyl)pyrrolidin-1-yl)-3-methoxy-5-methyl-1-oxoheptan-4-yl)-2-((R)-2-(dimethylamino)propanamido)-N,3-dimethylbutanamide], the IC50 was below 5 nM.

With `CC[C@H](C)[C@@H]([C@@H](CC(=O)N1CCC[C@H]1[C@H](OC)[C@@H](C)C(=O)N(C)CCc1cccc(N)c1)OC)N(C)C(=O)[C@@H](NC(=O)CN(C)C)C(C)C` [Compound 4, (S)-N-((3R,4S,5S)-1-((S)-2-((1R,2R)-3-((3-aminophenethyl)(methyl)amino)-1-methoxy-2-methyl-3-oxopropyl)pyrrolidin-1-yl)-3-methoxy-5-methyl-1-oxoheptan-4-yl)-2-(2-(dimethylamino)acetamido)-N,3-dimethylbutanamide], the IC50 is below 5 nM.

With `CC[C@H](C)[C@@H]([C@@H](CC(=O)N1CCC[C@H]1[C@H](OC)[C@@H](C)C(=O)N(C)CCc1cccc(N)c1)OC)N(C)C(=O)[C@@H](NC(=O)C(C)(C)CN(C)C)C(C)C` [Compound 5, (S)-N-((3R,4S,5S)-1-((S)-2-((1R,2R)-3-((3-aminophenethyl)(methyl)amino)-1-methoxy-2-methyl-3-oxopropyl)pyrrolidin-1-yl)-3-methoxy-5-methyl-1-oxoheptan-4-yl)-2-(3-(dimethylamino)-2,2-dimethylpropanamido)-N,3-dimethylbutanamide], the IC50 was in the range of 5 to 10 nM.

Turning to `CC[C@H](C)[C@@H]([C@@H](CC(=O)N1CCC[C@H]1[C@H](OC)[C@@H](C)C(=O)N(C)CCc1cccc(N)c1)OC)N(C)C(=O)[C@@H](NC(=O)[C@@H]1CCCN(C)C1)C(C)C` [Compound 6, (R)-N-((S)-1-(((3R,4S,5S)-1-((S)-2-((IR,2R)-3-((3-aminophenethyl)(methyl)amino)-1-methoxy-2-methyl-3-oxopropyl)pyrrolidin-1-yl)-3-methoxy-5-methyl-1-oxoheptan-4-yl)(methyl)amino)-3-methyl-1-oxobutan-2-yl)-1-methylpiperidine-3-carboxamide], the IC50 is above 10 nM.

Regarding `CC[C@H](C)[C@@H]([C@@H](CC(=O)N1CCC[C@H]1[C@H](OC)[C@@H](C)C(=O)N(C)CCc1cccc(N)c1)OC)N(C)C(=O)[C@@H](NC(=O)C(C)(C)N(C)C)C(C)C` [Compound 7, (S)-N-((3R,4S,5S)-1-((S)-2-((IR,2R)-3-((3-aminophenethyl)(methyl)amino)-1-methoxy-2-methyl-3-oxopropyl)pyrrolidin-1-yl)-3-methoxy-5-methyl-1-oxoheptan-4-yl)-2-(2-(dimethylamino)-2-methylpropanamido)-N,3-dimethylbutanamide], the IC50 was below 5 nM.

On to `CC[C@H](C)[C@@H]([C@@H](CC(=O)N1CCC[C@H]1[C@H](OC)[C@@H](C)C(=O)N(C)CCc1cccc(N)c1)OC)N(C)C(=O)[C@@H](NC(=O)[C@@H]1CCCN1C)C(C)C` [Compound 8], for which the IC50 was below 5 nM.

Consider `CC[C@H](C)[C@@H]([C@@H](CC(=O)N1CCC[C@H]1[C@H](OC)[C@@H](C)C(=O)N(C)CCc1cccc(N)c1)OC)N(C)C(=O)[C@@H](NC(=O)[C@H]1CCCN1C)C(C)C` [Compound 9, (R)-N-((S)-1-(((3R,4S,5S)-1-((S)-2-((1R,2R)-3-((3-aminophenethyl)(methyl)amino)-1-methoxy-2-methyl-3-oxopropyl)pyrrolidin-1-yl)-3-methoxy-5-methyl-1-oxoheptan-4-yl)(methyl)amino)-3-methyl-1-oxobutan-2-yl)-1-methylpyrrolidine-2-carboxamide], for which the IC50 is below 5 nM.

Regarding `CC[C@H](C)[C@@H]([C@@H](CC(=O)N1CCC[C@H]1[C@H](OC)[C@@H](C)C(=O)N(C)CCc1cccc(N)c1)OC)N(C)C(=O)[C@@H](NC(=O)[C@@H]1CCN(C)C1)C(C)C` [Compound 10, (R)-N-((S)-1-(((3R,4S,5S)-1-((S)-2-((IR,2R)-3-((3-aminophenethyl)(methyl)amino)-1-methoxy-2-methyl-3-oxopropyl)pyrrolidin-1-yl)-3-methoxy-5-methyl-1-oxoheptan-4-yl)(methyl)amino)-3-methyl-1-oxobutan-2-yl)-1-methylpyrrolidine-3-carboxamide], the IC50 is above 10 nM.

For the compound `CC[C@H](C)[C@@H]([C@@H](CC(=O)N1CCC[C@H]1[C@H](OC)[C@@H](C)C(=O)N(C)CCc1cccc(N)c1)OC)N(C)C(=O)[C@@H](NC(=O)[C@H]1CCCCN1C)C(C)C` [Compound 11, (R)-N-((S)-1-(((3R,4S,5S)-1-((S)-2-((1R,2R)-3-((3-aminophenethyl)(methyl)amino)-1-methoxy-2-methyl-3-oxopropyl)pyrrolidin-1-yl)-3-methoxy-5-methyl-1-oxoheptan-4-yl)(methyl)amino)-3-methyl-1-oxobutan-2-yl)-1-methylpiperidine-2-carboxamide], the IC50 is below 5 nM.

With `CC[C@H](C)[C@@H]([C@@H](CC(=O)N1CCC[C@H]1[C@H](OC)[C@@H](C)C(=O)N(C)CCc1cccc(N)c1)OC)N(C)C(=O)[C@@H](NC(=O)C1(N(C)C)CCC1)C(C)C` [Compound 12, N-((S)-1-(((3R,4S,5S)-1-((S)-2-((IR,2R)-3-((3-aminophenethyl)(methyl)amino)-1-methoxy-2-methyl-3-oxopropyl)pyrrolidin-1-yl)-3-methoxy-5-methyl-1-oxoheptan-4-yl)(methyl)amino)-3-methyl-1-oxobutan-2-yl)-1-(dimethylamino)cyclobutanecarboxamide], the IC50 was below 5 nM.

`CC[C@H](C)[C@@H]([C@@H](CC(=O)N1CCC[C@H]1[C@H](OC)[C@@H](C)C(=O)N(C)CCc1cccc(N)c1)OC)N(C)C(=O)[C@@H](NC(=O)[C@@H]1CCCCN1C)C(C)C` [Compound 13, (S)-N-((S)-1-(((3R,4S,5S)-1-((S)-2-((IR,2R)-3-((3-aminophenethyl)(methyl)amino)-1-methoxy-2-methyl-3-oxopropyl)pyrrolidin-1-yl)-3-methoxy-5-methyl-1-oxoheptan-4-yl)(methyl)amino)-3-methyl-1-oxobutan-2-yl)-1-methylpiperidine-2-carboxamide]: the IC50 is below 5 nM.
